Assay results published in patent publication US20080306056A1, “PYRAZOLE-DERIVATIVES AS FACTOR Xa INHIBITORS” (SANOFI-AVENTIS DEUTSCHLAND GMBH, priority 2002, published 2008).

Biological target: T1, human factor Xa (Homo sapiens, UniProt P00742)
T1 construct: 25 μl human factor Xa (Enzyme Research Laboratories, Inc; South Bend, Ind.); purchased Enzyme Research Laboratories, Inc; South Bend, Ind
Experiment: Factor Xa assay (chromogenic, purified enzyme)
Assay type: biochemical
Conditions: inhibition constant for factor Xa; chromogenic substrate S-2765 140 μM, enzyme 0.5 nM, 25° C., pH 7.8; Ki=IC50/{1+(substrate concentration/Km)}; read-out: Ki(FXa)
Procedure, shortened: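 Human factor Xa (0.5 nM) pre-incubated 10 min with compound in TBS-PEG/DMSO, then S-2765 (140 μM) added; initial hydrolysis rate read at 405 nm, 25°C. IC50 by linear regression of relative rate vs log concentration; Ki = IC50/(1+[S]/Km).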

T1 sequence (P00742 235-488 limits assumed): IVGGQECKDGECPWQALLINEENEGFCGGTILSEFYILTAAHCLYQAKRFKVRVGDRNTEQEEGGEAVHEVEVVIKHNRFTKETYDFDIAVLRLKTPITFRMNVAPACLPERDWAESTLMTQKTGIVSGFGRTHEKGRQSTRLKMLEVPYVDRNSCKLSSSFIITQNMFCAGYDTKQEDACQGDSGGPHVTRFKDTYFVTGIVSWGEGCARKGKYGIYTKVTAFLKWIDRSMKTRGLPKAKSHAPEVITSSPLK
T1 sequence (P00742 41-179 partner limits assumed): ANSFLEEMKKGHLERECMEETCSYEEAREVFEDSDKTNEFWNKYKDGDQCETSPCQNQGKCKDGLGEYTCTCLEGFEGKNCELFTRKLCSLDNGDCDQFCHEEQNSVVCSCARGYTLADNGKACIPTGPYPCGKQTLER

In the case of `CC(C)N1CCC(NC(=O)c2cc(-c3cccs3)n(Cc3cc(-c4ccc(Cl)s4)on3)n2)CC1` [Example 2, 1-[5-(5-Chloro-thiophen-2-yl)-isoxazol-3-ylmethyl]-5-thiophen-2-yl-1H-pyrazole-3-carboxylic acid (1-isopropyl-piperidin-4-yl)-amide], the Ki is reported as 32 nM.

`CC(C)N1CCC(NC(=O)c2cc(C(=O)NCC(=O)O)nn2Cc2cc(-c3ccc(Cl)s3)on2)CC1` [Example 28, {[1-[5-(5-Chloro-thiophen-2-yl)-isoxazol-3-ylmethyl]-5-(1-isopropyl-piperidin-4-ylcarbamoyl)-1H-pyrazole-3-carbonyl]-amino}-acetic acid] gave a Ki of 82 nM.

Compound `CC(C)N1CCC(NC(=O)c2cc(C(=O)N3CC(O)C3)nn2CC(=O)Nc2ccc(Cl)cn2)CC1` [Example 95, 2-[(5-Chloro-pyridin-2-ylcarbamoyl)-methyl]-5-(3-hydroxy-azetidine-1-carbonyl)-2H-pyrazole-3-carboxylic acid (1-isopropyl-piperidin-4-yl)-amide] has a Ki of 39 nM.

With `CC(C)N1CCC(NC(=O)c2cc(C(=O)N3CCC3)n(Cc3cc(-c4ccc(Cl)s4)on3)n2)CC1` [Example 86, 5-(Azetidine-1-carbonyl)-1-[5-(5-chloro-thiophen-2-yl)-isoxazol-3-ylmethyl]-1H-pyrazole-3-carboxylic acid (1-isopropyl-piperidin-4-yl)-amide] the Ki was 142 nM.

For `CC(C)N1CCC(NC(=O)c2cc(-c3ccc(Cl)s3)n(Cc3cc(-c4ccc(Cl)s4)on3)n2)CC1` [Example 6, 5-(5-Chloro-thiophen-2-yl)-1-[5-(5-chloro-thiophen-2-yl)-isoxazol-3-ylmethyl]-1H-pyrazole-3-carboxylic acid (1-isopropyl-piperidin-4-yl)-amide], the Ki was 491 nM.

`CC(C)N1CCC(NC(=O)c2cc(C(=O)N(CCO)CCO)nn2Cc2cc(-c3ccc(Cl)s3)on2)CC1` [Example 88, 1-[5-(5-Chloro-thiophen-2-yl)-isoxazol-3-ylmethyl]-1H-pyrazole-3,5-dicarboxylic acid 3-[bis-(2-hydroxy-ethyl)-amide] 5-[(1-isopropyl-piperidin-4-yl)-amide]] showed a Ki of 106 nM.

Compound `CC(C)N1CCC(NC(=O)c2cc(C(=O)O)nn2Cc2cc(-c3ccc(Cl)s3)on2)CC1` [Example 21, 1-[5-(5-Chloro-thiophen-2-yl)-isoxazol-3-ylmethyl]-5-(1-isopropyl-piperidin-4-ylcarbamoyl)-1H-pyrazole-3-carboxylic acid] has a Ki of 214 nM.

Compound `CC(C)N1CCC(NC(=O)c2cc(C(=O)NC3CCC3)nn2Cc2cc(-c3ccc(Cl)s3)on2)CC1` [Example 46, 1-[5-(5-Chloro-thiophen-2-yl)-isoxazol-3-ylmethyl]-1H-pyrazole-3,5-dicarboxylic acid 3-cyclobutylamide 5-[(1-isopropyl-piperidin-4-yl)-amide]] has a Ki of 106 nM.

Work on `CC(C)N1CCC(NC(=O)c2cc(C(=O)NCCCO)nn2Cc2cc(-c3ccc(Cl)s3)on2)CC1` [Example 62, 1-[5-(5-Chloro-thiophen-2-yl)-isoxazol-3-ylmethyl]-1H-pyrazole-3,5-dicarboxylic acid 3-[(3-hydroxy-propyl)-amide] 5-[(1-isopropyl-piperidin-4-yl)-amide]] yielded a Ki of 80 nM.

With `CC(C)N1CCC(NC(=O)c2cc(C(=O)N3CCCOCC3)nn2CC(=O)Nc2ccc(Cl)cn2)CC1` [Example 108, 2-[(5-Chloro-pyridin-2-ylcarbamoyl)-methyl]-5-([1,4]oxazepane-4-carbonyl)-2H-pyrazole-3-carboxylic acid (1-isopropyl-piperidin-4-yl)-amide] the Ki was 39 nM.

In the case of `CC(C)N1CCC(NC(=O)c2c(C#N)c(-c3cccs3)nn2Cc2ccc(Cl)cc2)CC1` [Example 19, 2-(4-Chloro-benzyl)-4-cyano-5-thiophen-2-yl-2H-pyrazole-3-carboxylic acid (1-isopropyl-piperidin-4-yl)-amide], the Ki is reported as 274 nM.

Compound `CC(C)N1CCC(NC(=O)c2cc(-c3n[nH]c(=O)o3)nn2Cc2cc(-c3ccc(Cl)s3)on2)CC1` [Example 29, 2-[5-(5-Chloro-thiophen-2-yl)-isoxazol-3-ylmethyl]-5-(5-oxo-4,5-dihydro-[1,3,4]oxadiazol-2-yl)-2H-pyrazole-3-carboxylic acid (1-isopropyl-piperidin-4-yl)-amide] has a Ki of 155 nM.

`CC(C)N1CCC(NC(=O)c2cc(C(=O)NC3CCC3)nn2CC(=O)Nc2ccc(Cl)cn2)CC1` [Example 52, 1-[(5-Chloro-pyridin-2-ylcarbamoyl)-methyl]-1H-pyrazole-3,5-dicarboxylic acid 3-cyclobutylamide 5-[(1-isopropyl-piperidin-4-yl)-amide]] was tested, and the Ki was 16 nM.

`CC(C)N1CCC(NC(=O)c2cc(C(=O)NCCC(=O)O)nn2Cc2cc(-c3ccc(Cl)s3)on2)CC1` [Example 58, 3-{[1-[5-(5-Chloro-thiophen-2-yl)-isoxazol-3-ylmethyl]-5-(1-isopropyl-piperidin-4-ylcarbamoyl)-1H-pyrazole-3-carbonyl]-amino}-propionic acid] was tested, and the Ki was 63 nM.

`CC(C)N1CCC(NC(=O)c2c(C#N)cnn2Cc2cc(-c3ccc(Cl)s3)on2)CC1` [Example 55, 2-[5-(5-Chloro-thiophen-2-yl)-isoxazol-3-ylmethyl]-4-cyano-2H-pyrazole-3-carboxylic acid (1-isopropyl-piperidin-4-yl)-amide] was tested, and the Ki was 99 nM.

`CC(C)N1CCC(NC(=O)c2cc(C(=O)NCCS(N)(=O)=O)nn2Cc2cc(-c3ccc(Cl)s3)on2)CC1` [Example 44, 1-[5-(5-Chloro-thiophen-2-yl)-isoxazol-3-ylmethyl]-1H-pyrazole-3,5-dicarboxylic acid 5-[(1-isopropyl-piperidin-4-yl)-amide] 3-[(2-sulfamoyl-ethyl)-amide]] was tested, and the Ki was 46 nM.

`CC(C)N1CCC(NC(=O)c2cc(C(=O)N(C)C3CCS(=O)(=O)C3)nn2Cc2cc(-c3ccc(Cl)s3)on2)CC1` (stereo not shown) [Example 40, 1-[5-(5-Chloro-thiophen-2-yl)-isoxazol-3-ylmethyl]-1H-pyrazole-3,5-dicarboxylic acid 3-[(1,1-dioxo-tetrahydro-1-thiophen-3-yl)-methyl-amide] 5-[(1-isopropyl-piperidin-4-yl)-amide]] was tested, and the Ki was 123 nM.

Work on `CC(C)N1CCC(NC(=O)c2cc(C(=O)OCCN3CCNC3=O)nn2Cc2cc(-c3ccc(Cl)s3)on2)CC1` [Example 32, 1-[5-(5-Chloro-thiophen-2-yl)-isoxazol-3-ylmethyl]-5-(1-isopropyl-piperidin-4-ylcarbamoyl)-1H-pyrazole-3-carboxylic acid 2-(2-oxo-imidazolidin-1-yl)-ethyl ester] yielded a Ki of 45 nM.

`CC(C)N1CCC(NC(=O)c2cc(C(=O)OCCO)nn2Cc2cc(-c3ccc(Cl)s3)on2)CC1` [Example 110, 1-[5-(5-Chloro-thiophen-2-yl)-isoxazol-3-ylmethyl]-5-(1-isopropyl-piperidin-4-ylcarbamoyl)-1H-pyrazole-3-carboxylic acid 2-hydroxy-ethyl ester] showed a Ki of 81 nM.

Compound `CC(C)N1CCC(NC(=O)c2cc(-c3ccco3)n(Cc3cc(-c4ccc(Cl)s4)on3)n2)CC1` [Example 84, 1-[5-(5-Chloro-thiophen-2-yl)-isoxazol-3-ylmethyl]-5-furan-2-yl-1H-pyrazole-3-carboxylic acid (1-isopropyl-piperidin-4-yl)-amide] has a Ki of 42 nM.

With `CC(C)OC(=O)CNC(=O)c1cc(C(=O)NC2CCN(C(C)C)CC2)n(CC(=O)Nc2ccc(Cl)cn2)n1` [Example 92, {[1-[(5-Chloro-pyridin-2-ylcarbamoyl)-methyl]-5-(1-isopropyl-piperidin-4-ylcarbamoyl)-1H-pyrazole-3-carbonyl]-amino}-acetic acid isopropyl ester] the Ki was 41 nM.

`CC(C)N1CCC(NC(=O)c2cc(C(=O)NCCCN3CCCC3=O)nn2Cc2cc(-c3ccc(Cl)s3)on2)CC1` [Example 76, 1-[5-(5-Chloro-thiophen-2-yl)-isoxazol-3-ylmethyl]-1H-pyrazole-3,5-dicarboxylic acid 5-[(1-isopropyl-piperidin-4-yl)-amide] 3-{[3-(2-oxo-pyrrolidin-1-yl)-propyl]-amide}] showed a Ki of 83 nM.

For `CC(C)N1CCC(NC(=O)c2cc(C(=O)N3CCC(O)CC3)nn2Cc2cc(-c3ccc(Cl)s3)on2)CC1` [Example 35, 2-[5-(5-Chloro-thiophen-2-yl)-isoxazol-3-ylmethyl]-5-(4-hydroxy-piperidine-1-carbonyl)-2H-pyrazole-3-carboxylic acid (1-isopropyl-piperidin-4-yl)-amide], the Ki was 163 nM.

Compound `CC(C)OC(=O)CNC(=O)c1cc(C(=O)NC2CCN(C(C)C)CC2)n(Cc2cc(-c3ccc(Cl)s3)on2)n1` [Example 90, {[1-[5-(5-Chloro-thiophen-2-yl)-isoxazol-3-ylmethyl]-5-(1-isopropyl-piperidin-4-ylcarbamoyl)-1H-pyrazole-3-carbonyl]-amino}-acetic acid isopropyl ester] has a Ki of 240 nM.

`CCCc1cc(C(=O)NC2CCN(C(C)C)CC2)n(Cc2cc(-c3ccc(Cl)s3)on2)n1` [Example 8, 2-[5-(5-Chloro-thiophen-2-yl)-isoxazol-3-ylmethyl]-5-propyl-2H-pyrazole-3-carboxylic acid (1-isopropyl-piperidin-4-yl)-amide] was tested, and the Ki was 54 nM.
